From paper PMC8398451, “Molecular Engineering of Curcumin, an Active Constituent of Curcuma longa L. (Turmeric) of the Family Zingiberaceae with Improved Antiproliferative Activity” (Plants, 2021)
Read-outs that look alike come from different tables or passages of the source.

What was measured:
OVCAR-5 = assay: NCI antiproliferative SRB assay, Ovarian Cancer panel; assay type: cell-based, Human
MDA-MB-231 = assay: NCI antiproliferative SRB assay, Breast Cancer panel; assay type: cell-based
RPMI-8226 = assay: NCI antiproliferative SRB assay, Leukemia panel; assay type: cell-based, Human
MDA-MB-435 = assay: NCI antiproliferative SRB assay, Melanoma panel; assay type: cell-based
RXF 393 = assay: NCI antiproliferative SRB assay, Renal Cancer panel; assay type: cell-based, Human
UACC-62 = assay: NCI antiproliferative SRB assay, Melanoma panel; assay type: cell-based, Human
HCT-15 = assay: NCI antiproliferative SRB assay, Colon Cancer panel; assay type: cell-based, Human
HS 578T = assay: NCI antiproliferative SRB assay, Breast Cancer panel; assay type: cell-based, Human
Leukemia cell line panel = assay: NCI antiproliferative assay, panel summary; assay type: cell-based, Human; settings: for GI50: Homo sapiens
M14 = assay: NCI antiproliferative SRB assay, Melanoma panel; assay type: cell-based, Human
ACHN = assay: NCI antiproliferative SRB assay, Renal Cancer panel; assay type: cell-based, Human
SK-MEL-2 = assay: NCI antiproliferative SRB assay, Melanoma panel; assay type: cell-based, Human
NCI-H226 = assay: NCI antiproliferative SRB assay, Non-Small Cell Lung Cancer panel; assay type: cell-based, Human
PC-3 = assay: NCI antiproliferative SRB assay, Prostate Cancer panel; assay type: cell-based, Human
CCRF-CEM = assay: NCI antiproliferative SRB assay, Leukemia panel; assay type: cell-based, Human
SF-539 = assay: NCI antiproliferative SRB assay, CNS Cancer panel; assay type: cell-based, Human
T-47D = assay: NCI antiproliferative SRB assay, Breast Cancer panel; assay type: cell-based, Human
HOP-62 = assay: NCI antiproliferative SRB assay, Non-Small Cell Lung Cancer panel; assay type: cell-based, Human
U251 = assay: NCI antiproliferative SRB assay, CNS Cancer panel; assay type: cell-based; settings: U251
[1] = test system: Ovarian Cancer cell line panel; assay: NCI antiproliferative assay, panel summary; assay type: cell-based, Human
UO-31 = assay: NCI antiproliferative SRB assay, Renal Cancer panel; assay type: cell-based, Human
BT-549 = assay: NCI antiproliferative SRB assay, Breast Cancer panel; assay type: cell-based, Human
DU-145 = assay: NCI antiproliferative SRB assay, Prostate Cancer panel; assay type: cell-based, Human
[2] = test system: Breast Cancer cell line panel; assay: NCI antiproliferative assay, panel summary; assay type: cell-based, Human
SF-268 = assay: NCI antiproliferative SRB assay, CNS Cancer panel; assay type: cell-based, Human
HT29 = assay: NCI antiproliferative SRB assay, Colon Cancer panel; assay type: cell-based, Human
SN 12C = assay: NCI antiproliferative SRB assay, Renal Cancer panel; assay type: cell-based, Human
[3] = test system: CNS Cancer cell line panel; assay: NCI antiproliferative assay, panel summary; assay type: cell-based, Human
MOLT-4 = assay: NCI antiproliferative SRB assay, Leukemia panel; assay type: cell-based, Human
CAKI-1 = assay: NCI antiproliferative SRB assay, Renal Cancer panel; assay type: cell-based, Human
MCF7 = assay: NCI antiproliferative SRB assay, Breast Cancer panel; assay type: cell-based, Human
[4] = Homo sapiens, 5-dose 0.01-100 µM
[5] = Homo sapiens, 5-dose 0.01-100 µM, read-out: LC50 (the source's name)
[6] = Homo sapiens, T47D, 5-dose 0.01-100 µM
[7] = Homo sapiens, 5-dose assay, read-out: Sub Panel MID b (mean GI50 of panel)

SMILES: COc1cc(/C=C/c2cc(/C=C/c3ccc(O)c(OC)c3)n(C(=O)Nc3ccc(C(F)(F)F)cc3)n2)ccc1O [3c]
- TGI (OVCAR-5; 5-dose 0.01-100 µM): 4.97 µM
- GI50 (OVCAR-5; [4]): 2.16 µM
- CC50 (OVCAR-5; [5]): 15.2 µM
- GP (growth percent) (OVCAR-5; one dose 10 µM): 115.18
- TGI (MDA-MB-231; 5-dose 0.01-100 µM): 9.62 µM
- GI50 (MDA-MB-231; Homo sapiens): 3.06 µM
- CC50 (MDA-MB-231; [5]): > 100 µM
- %GI (MDA-MB-231; one dose 10 µM): 45.21%
- GP (growth percent) (MDA-MB-231; one dose 10 µM): 54.79
- TGI (RPMI-8226; 5-dose 0.01-100 µM): 6.59 µM
- GI50 (RPMI-8226; [4]): 2.09 µM
- CC50 (RPMI-8226; [5]): > 100 µM
- %GI (RPMI-8226; one dose 10 µM): 100.21%
- GP (growth percent) (RPMI-8226; one dose 10 µM): −0.21
- TGI (MDA-MB-435; 5-dose 0.01-100 µM): 7.06 µM
- GI50 (MDA-MB-435; Homo sapiens): 2.35 µM
- CC50 (MDA-MB-435; [5]): 33.4 µM
- %GI (MDA-MB-435; one dose 10 µM): 72.15%
- GP (growth percent) (MDA-MB-435; one dose 10 µM): 27.85
- TGI (RXF 393; 5-dose 0.01-100 µM): 3.73 µM
- GI50 (RXF 393; [4]): 1.98 µM
- %GI (RXF 393; one dose 10 µM): 77.34%
- GP (growth percent) (RXF 393; one dose 10 µM): 22.66
- TGI (UACC-62; 5-dose 0.01-100 µM): 4.76 µM
- GI50 (UACC-62; [4]): 2.02 µM
- CC50 (UACC-62; [5]): 16.7 µM
- %GI (UACC-62; one dose 10 µM): 68.90%
- GP (growth percent) (UACC-62; one dose 10 µM): 31.10
- TGI (HCT-15; 5-dose 0.01-100 µM): 9.63 µM
- GI50 (HCT-15; [4]): 2.69 µM
- CC50 (HCT-15; [5]): > 100 µM
- %GI (HCT-15; one dose 10 µM): 74.49%
- GP (growth percent) (HCT-15; one dose 10 µM): 25.51
- TGI (HS 578T; 5-dose 0.01-100 µM): 60.6 µM
- GI50 (HS 578T; [4]): 5.1 µM
- CC50 (HS 578T; [5]): > 100 µM
- %GI (HS 578T; one dose 10 µM): 48.11%
- GP (growth percent) (HS 578T; one dose 10 µM): 51.89
- Mean % GI (Leukemia cell line panel; 10 µM): 91.31%
- Selectivity Ratio (MID a:MID b) (Leukemia cell line panel; 5-dose assay): 1.27
- GI50 (Leukemia cell line panel; 5-dose assay, read-out: GI50 values, range over the leukemia panel): 1.48 to 2.73 µM
- GI50 (Leukemia cell line panel; 5-dose assay, read-out: Sub Panel MID b (mean GI50 of panel)): 2.24 µM
- TGI (M14; 5-dose 0.01-100 µM): 4.08 µM
- GI50 (M14; [4]): 1.94 µM
- CC50 (M14; [5]): 8.58 µM
- %GI (M14; one dose 10 µM): 70.52%
- GP (growth percent) (M14; one dose 10 µM): 29.48
- TGI (ACHN; 5-dose 0.01-100 µM): 7.08 µM
- GI50 (ACHN; [4]): 2.48 µM
- CC50 (ACHN; [5]): > 100 µM
- GP (growth percent) (ACHN; one dose 10 µM): 65.82
- TGI (SK-MEL-2; 5-dose 0.01-100 µM): 17.3 µM
- GI50 (SK-MEL-2; [4]): 3.15 µM
- CC50 (SK-MEL-2; [5]): > 100 µM
- %GI (SK-MEL-2; one dose 10 µM): 15.53%
- GP (growth percent) (SK-MEL-2; one dose 10 µM): 84.47
- TGI (NCI-H226; 5-dose 0.01-100 µM): 27.6 µM
- GI50 (NCI-H226; [4]): 7.29 µM
- CC50 (NCI-H226; [5]): 91.7 µM
- %GI (NCI-H226; one dose 10 µM): 17.33%
- GP (growth percent) (NCI-H226; one dose 10 µM): 82.67
- TGI (PC-3; 5-dose 0.01-100 µM): 13.5 µM
- GI50 (PC-3; [4]): 3.21 µM
- CC50 (PC-3; [5]): > 100 µM
- %GI (PC-3; one dose 10 µM): 61.97%
- GP (growth percent) (PC-3; one dose 10 µM): 38.03
- GI50 (CCRF-CEM; [4]): 2.63 µM
- CC50 (CCRF-CEM; [5]): > 100 µM
- %GI (CCRF-CEM; one dose 10 µM): 96.58%
- GP (growth percent) (CCRF-CEM; one dose 10 µM): 3.42
- TGI (SF-539; 5-dose 0.01-100 µM): 7.45 µM
- GI50 (SF-539; [4]): 2.37 µM
- CC50 (SF-539; [5]): 56 µM
- %GI (SF-539; one dose 10 µM): 70.99%
- GP (growth percent) (SF-539; one dose 10 µM): 29.01
- TGI (T-47D; 5-dose 0.01-100 µM): 39.0 µM
- GI50 (T-47D; [6]): 2.81 µM
- LC50 (lethal concentration, 50% cell kill) (T-47D; [6]): > 100 µM
- %GI (T-47D; one dose 10 µM): 52.60%
- GP (growth percent) (T-47D; one dose 10 µM): 47.40
- TGI (HOP-62; 5-dose 0.01-100 µM): 16.2 µM
- GI50 (HOP-62; [4]): 3.6 µM
- CC50 (HOP-62; [5]): > 100 µM
- %GI (HOP-62; one dose 10 µM): 37.13%
- GP (growth percent) (HOP-62; one dose 10 µM): 62.87
- GI50 (U251; Homo sapiens, U-251, 5-dose 0.01-100 µM, read-out: GI50): 2.49 µM
- CC50 (U251; Homo sapiens, U-251, 5-dose 0.01-100 µM, read-out: LC50 (the source's name)): > 100 µM
- TGI (U251; 5-dose 0.01-100 µM): 6.86 µM
- %GI (U251; one dose 10 µM): 90.29%
- GP (growth percent) (U251; one dose 10 µM): 9.71
- Mean % GI ([1]; 10 µM): 47.62%
- Selectivity Ratio (MID a:MID b) ([1]; 5-dose assay): 0.88
- GI50 [1, 7]: 3.24 µM
- GI50 (UO-31; [4]): 1.94 µM
- LC50 (50% lethal concentration) (UO-31; [4]): > 100 µM
- %GI (UO-31; one dose 10 µM): 57.15%
- GP (growth percent) (UO-31; one dose 10 µM): 42.85
- TGI (BT-549; 5-dose 0.01-100 µM): 3.67 µM
- GI50 (BT-549; [4]): 1.96 µM
- CC50 (BT-549; [5]): 6.86 µM
- %GI (BT-549; one dose 10 µM): 81.03%
- GP (growth percent) (BT-549; one dose 10 µM): 18.97
- TGI (DU-145; 5-dose 0.01-100 µM): 13.0 µM
- GI50 (DU-145; [4]): 3.67 µM
- CC50 (DU-145; [5]): 45.3 µM
- %GI (DU-145; one dose 10 µM): 52.45%
- GP (growth percent) (DU-145; one dose 10 µM): 47.55
- Mean % GI ([2]; 10 µM): 60.04%
- Selectivity Ratio (MID a:MID b) ([2]; 5-dose assay): 0.99
- GI50 [2, 7]: 2.86 µM
- TGI (SF-268; 5-dose 0.01-100 µM): 15.4 µM
- GI50 (SF-268; [4]): 2.8 µM
- CC50 (SF-268; [5]): > 100 µM
- %GI (SF-268; one dose 10 µM): 62.88%
- GP (growth percent) (SF-268; one dose 10 µM): 37.12
- TGI (HT29; 5-dose 0.01-100 µM): 4.13 µM
- GI50 (HT29; Homo sapiens, HT-29, 5-dose 0.01-100 µM): 2.02 µM
- CC50 (HT29; Homo sapiens, HT-29, 5-dose 0.01-100 µM, read-out: LC50 (the source's name)): 8.44 µM
- %GI (HT29; one dose 10 µM): 96.50%
- GP (growth percent) (HT29; one dose 10 µM): 3.50
- TGI (SN 12C; 5-dose 0.01-100 µM): 9.90 µM
- GI50 (SN 12C; Homo sapiens, SN12C, 5-dose 0.01-100 µM): 2.73 µM
- CC50 (SN 12C; Homo sapiens, SN12C, 5-dose 0.01-100 µM, read-out: LC50 (the source's name)): > 100 µM
- %GI (SN 12C; one dose 10 µM): 63.08%
- GP (growth percent) (SN 12C; one dose 10 µM): 36.92
- Mean % GI ([3]; 10 µM): 53.38%
- Selectivity Ratio (MID a:MID b) ([3]; 5-dose assay): 1.02
- GI50 [3, 7]: 2.78 µM
- TGI (MOLT-4; 5-dose 0.01-100 µM): 20.0 µM
- GI50 (MOLT-4; [4]): 2.73 µM
- CC50 (MOLT-4; [5]): > 100 µM
- %GI (MOLT-4; one dose 10 µM): 88.91%
- GP (growth percent) (MOLT-4; one dose 10 µM): 11.09
- TGI (CAKI-1; 5-dose 0.01-100 µM): 12.7 µM
- GI50 (CAKI-1; [4]): 3.02 µM
- CC50 (CAKI-1; [5]): 44.1 µM
- %GI (CAKI-1; one dose 10 µM): 45.01%
- GP (growth percent) (CAKI-1; one dose 10 µM): 54.99
- TGI (MCF7; 5-dose 0.01-100 µM): 10.7 µM
- GI50 (MCF7; [4]): 1.97 µM
- CC50 (MCF7; [5]): 72 µM
- %GI (MCF7; one dose 10 µM): 77.08%
- GP (growth percent) (MCF7; one dose 10 µM): 22.92
